Results from patent publication US20180104354A1, “CHIMERIC ANTIGEN RECEPTOR T CELL SWITCHES AND USES THEREOF” (The California Institute for Biomedical Research, priority 2013, published 2018).
Residue numbers refer to the chain shown, from its start. “And” between values parts separate entries of the source, which are not always exact repeats. Equal entries are not always repeated. Where two headings read alike, the source gives them in different places.

How the values were obtained:
[1] = biological target: Her2 (UniProt P04626); experiment: cell-based or functional assay
[2] = Pharmacokinetic study of P-TriA-FITC in mice; assay type: in vivo
From the text: (§1) In brief, subcutaneous C4-2 (PSMA+) tumors were established in non-obese diabetic-severe combined immunodeficiency (NOD-SCID-γ−/−, NSG) mice.

[3] = system: C4-2 (PSMA+) tumors; experiment: In vivo efficacy, subcutaneous C4-2 tumors in NSG mice; conditions: s.c. C4-2 tumors
From the text: as §1

[4] = system: C4-2 (PSMA+) prostate cancer cells; experiment: 24 hr cytotoxicity assay of anti-FITC-CAR T cells with P-TriA-FITC, C4-2; assay type: cell-based; conditions: triplicates
Procedure: (§2) Transduced human effector cells (˜50% transduction efficiency) were co-incubated with target cells at 10:1 (total T cells to target cells) ratio for 24 hr in the presence of varying concentrations of FITC “switches.” Redirected lysis of target cells was determined by CytoTox96 nonradioactive cytotoxicity assay kit (Promega, Madison, Wis.) according to manufacturer's protocol. The percentage of cytotoxicity was calculated by: % cytotoxicity=(Absorbance experimental average−Absorbance spontaneous average)/(absorbance max killing average−Absorbance spontaneous average)×100.
(§3) Human PBMCs were freshly isolated from whole blood of healthy donors by centrifugation with Ficoll-Paque PLUS (GE healthcare, Piscataway, N.J.) density gradient medium according to manufacturer's protocol. Cells were immediately activated with Dynabeads Human […] CD3/CD28 (Life Technologies, Carlsbad, Calif.) at 3:1 (bead to cell) ratio in AIM-V media (Life Technologies) containing 5% human AB serum (Valley Biomedical, Winchester, Va.). Lentiviral production was carried out using HEK293FT cell lines. Viral supernatant was used directly to transduce activated PBMCs via spinoculation in the presence of protamine sulfate and recombinant human IL2 (R&D systems, Minneapolis, Minn.). C4-2, KB, and A549 cell lines were maintained in RPMI-1640, Eagles's Minimum Essential Media, and F-12K medium supplemented with 10% fetal bovine serum, respectively (all from Life Technologies).
FIG. 5B depicts a scheme for synthesis of the TriA-2-[3-(1,3-dicarboxypropyl)ureido] pentanedioic acid linker to be conjugated to FITC. FIG. 5C depicts the results from a 24 hr cytotoxicity assay of anti-FITC-CAR T cells targeting C4-2 (PSMA+) prostate cancer cells with serial dilutions of P-TriA-FITC. Each concentration was carried out in triplicate. Results are shown as average percentage of cytotoxicity.

[5] = system: KB (FR+) cells; experiment: In vitro cytotoxicity assay of anti-FITC-CAR-Ts with Folate-FITC, KB; assay type: cell-based
Procedure: as §2, §3
(§4) FIG. 6B-6C depicts the results from an in vitro cytotoxicity assay of anti-FITC-CAR-Ts co-incubated with KB (FR+) (see FIG. 6B) or A549 (FR−) (see FIG. 6C) target cells in the presence of varying concentrations Folate-FITC. Each concentration was carried out in triplicates. Results are shown as average percentage of cytotoxicity.

[6] = system: A549 (FR−) cells; experiment: In vitro cytotoxicity assay of anti-FITC-CAR-Ts with Folate-FITC, A549; assay type: cell-based; conditions: Homo sapiens; for cytotoxicity at 320 fM: 0.32 pM; for cytotoxicity at 0.0002 µM: 200 pM; for cytotoxicity at 0.001 µM: 1000 pM; for cytotoxicity at 0.005 µM: 5000 pM
Procedure: as §2, §3, §4

[7] = biological target: T1, CD19 (human, UniProt P15391 20-556); experiment: cell-based or functional assay
T1 sequence (looked up): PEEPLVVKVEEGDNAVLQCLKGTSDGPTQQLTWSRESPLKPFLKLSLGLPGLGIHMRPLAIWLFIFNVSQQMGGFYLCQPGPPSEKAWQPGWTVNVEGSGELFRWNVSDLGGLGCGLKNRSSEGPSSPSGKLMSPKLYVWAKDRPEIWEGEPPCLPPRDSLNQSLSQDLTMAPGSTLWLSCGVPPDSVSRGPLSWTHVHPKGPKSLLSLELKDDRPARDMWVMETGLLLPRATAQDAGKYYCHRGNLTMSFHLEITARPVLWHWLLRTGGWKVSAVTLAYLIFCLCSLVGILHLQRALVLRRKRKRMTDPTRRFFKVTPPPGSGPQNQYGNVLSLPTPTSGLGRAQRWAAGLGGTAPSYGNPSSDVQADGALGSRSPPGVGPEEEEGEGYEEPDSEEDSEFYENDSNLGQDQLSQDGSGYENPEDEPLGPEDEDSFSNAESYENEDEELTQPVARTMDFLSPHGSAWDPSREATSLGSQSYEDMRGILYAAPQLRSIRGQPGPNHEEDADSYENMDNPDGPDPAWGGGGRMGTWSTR

[8] = biological target: T1, CD19; experiment: cell-based or functional assay; remark: listed apart in the source

FITC-anti-Her2 antibody CAR-T switch with FITC conjugated at LC S202pAcF (Fab based on Trastuzumab)
% cytotoxicity; 0.01 pM switch; MDA MB231 cells [1]: 0% | % cytotoxicity; 0.1 pM switch; MDA MB231 cells [1]: 0% | % cytotoxicity; 100 pM switch; MDA MB231 cells [1]: 48% | EC50 of cytotoxicity; SKBR3 cells [1]: 8000 to 20000 pM

O=C(O)CCC(NC(=O)NC(CCCCn1cc(CCCCCCNC(=O)c2ccc(C(=O)NCCOCCOCCOCCNC(=O)c3ccc4c(c3)C(=O)OC43c4ccc(O)cc4Oc4cc(O)ccc43)cc2)nn1)C(=O)O)C(=O)O (centres unmarked) [P-TriA-FITC, 2-[3-(1,3-dicarboxypropyl)ureido]pentanedioic acid-TriA-FITC]
intravenous (IV) half-life t1/2 [2]: 1.08 ± 0.14 h | Tumor response ([3]; FITC-CART cells (FITC-E2) i.p. plus switch 1 mg/kg i.v. daily for 10 days): tumors had regressed | Tumor response ([3]; switch only, no CART cells): tumor growth continued | percentage of cytotoxicity ([4]; 4M5.3 anti-FITC CAR T cells, 0.000512 pM): 3.992% and 3.358% and 4.689% | percentage of cytotoxicity ([4]; 4M5.3 anti-FITC CAR T cells, 0.012800 pM): 3.555% and 1.304% and 1.206% | percentage of cytotoxicity ([4]; 4M5.3 anti-FITC CAR T cells, 0.320000 pM): 2.224% and 2.545% and 2.965% | percentage of cytotoxicity ([4]; 4M5.3 anti-FITC CAR T cells, 8.000000 pM): 9.173% and 10.76% and 7.583% | percentage of cytotoxicity ([4]; 4M5.3 anti-FITC CAR T cells, 40.000000 pM): 52.56% and 55.81% and 53.56% | percentage of cytotoxicity ([4]; 4M5.3 anti-FITC CAR T cells, 200.000000 pM): 77.22% and 76.53% and 73.92% | percentage of cytotoxicity ([4]; 4M5.3 anti-FITC CAR T cells, 1000.000000 pM): 82.62% and 79.94% and 78.91% | percentage of cytotoxicity ([4]; 4M5.3 anti-FITC CAR T cells, 5000.000000 pM): 82.04% and 77.45% and 78.01% | percentage of cytotoxicity ([4]; Non-transduced T cells, 0.000512 pM): 1.418% and 0.8462% and 1.052% | percentage of cytotoxicity ([4]; Non-transduced T cells, 0.012800 pM): 1.632% and 0.1496% and 0.8552% | percentage of cytotoxicity ([4]; Non-transduced T cells, 0.320000 pM): 0.1943% and 0.5515% and −0.1898% | percentage of cytotoxicity ([4]; Non-transduced T cells, 8.000000 pM): 1.409% and 0.4622% and 0.5515% | percentage of cytotoxicity ([4]; Non-transduced T cells, 40.000000 pM): −1.11% and −0.5828% and 1.177% | percentage of cytotoxicity ([4]; Non-transduced T cells, 200.000000 pM): −0.5292% and 0.5069% and −0.422% | percentage of cytotoxicity ([4]; Non-transduced T cells, 1000.000000 pM): 0.02456% and 0.09601% and 0.04242% | percentage of cytotoxicity ([4]; Non-transduced T cells, 5000.000000 pM): 1.052% and −0.9132% and 0.1139%

Nc1nc2ncc(CNc3ccc(C(=O)N[C@H](CCC(=O)NCCNC(=S)Nc4ccc5c(c4)C(=O)OC54c5ccc(O)cc5Oc5cc(O)ccc54)C(=O)O)cc3)nc2c(=O)[nH]1 [FITC-folate switch]
cytotoxicity at 1.6 pM [5]: 16.5% | cytotoxicity at 8 pM [5]: 37.1% | cytotoxicity at 40 pM [5]: 68.1% | cytotoxicity at 0.0002 µM [5]: 74.6% | cytotoxicity at 0.001 µM [5]: 77.1% | cytotoxicity at 0.005 µM [5]: 77% | cytotoxicity at 320 fM [5]: 8.3% | cytotoxicity at 320 fM ([5]; T-cell, KB (FR+), non-transduced T cells, 0.32 pM): 2.27% | cytotoxicity at 1.6 pM ([5]; T-cell, KB (FR+), non-transduced T cells, 1.6 pM): 3.01% | cytotoxicity at 8 pM ([5]; T-cell, KB (FR+), non-transduced T cells, 8 pM): 2.19% | cytotoxicity at 40 pM ([5]; T-cell, KB (FR+), non-transduced T cells, 40 pM): 2.88% | cytotoxicity at 0.0002 µM ([5]; T-cell, KB (FR+), non-transduced T cells, 200 pM): 2.32% | cytotoxicity at 0.001 µM ([5]; T-cell, KB (FR+), non-transduced T cells, 1000 pM): 2.38% | cytotoxicity at 0.005 µM ([5]; T-cell, KB (FR+), non-transduced T cells, 5000 pM): 2.04% | cytotoxicity at 320 fM ([6]; 4M5.3 CAR-T): 0.957% | cytotoxicity at 8 pM ([6]; 4M5.3 CAR-T): 0.765% | cytotoxicity at 40 pM ([6]; 4M5.3 CAR-T): 2.55% | cytotoxicity at 0.0002 µM ([6]; 4M5.3 CAR-T): 5.78% | cytotoxicity at 0.001 µM ([6]; 4M5.3 CAR-T): 5.87% | cytotoxicity at 0.005 µM ([6]; 4M5.3 CAR-T): 3.15% | cytotoxicity at 1.6 pM ([6]; 4M5.3 CAR-T): 0.527% | cytotoxicity at 320 fM ([6]; non-transduced T cells): -0.986% | cytotoxicity at 8 pM ([6]; non-transduced T cells): -1.05% | cytotoxicity at 40 pM ([6]; non-transduced T cells): -1.52% | cytotoxicity at 0.0002 µM ([6]; non-transduced T cells): -0.96% | cytotoxicity at 0.001 µM ([6]; non-transduced T cells): -1.16% | cytotoxicity at 0.005 µM ([6]; non-transduced T cells): -1.61% | cytotoxicity at 1.6 pM ([6]; non-transduced T cells): -1.02%

B1: anti-CD19 Fab-FITC switch LG68X (pAzF at glycine 68 of the light chain) (Fab, V domains shown)
VH: EVKLQESGPGLVAPSQSLSVTCTVSGVSLPDYGVSWIRQPPRKGLEWLGVIWGSETTYYNSALKSRLTIIKDNSKSQVFLKMNSLQTDDTAIYYCAKHYYYGGSYAMDYWGQGTSVTVSS
VL: DIQMTQTTSSLSASLGDRVTISCRASQDISKYLNWYQQKPDGTVKLLIYHTSRLHSGVPSRFSGSGSXTDYSLTISNLEQEDIATYFCQQGNTLPYTFGGGTKLEIKR
modifications: p-azidophenylalanine (pAzF) at LC G68, clicked to cyclooctyne-FITC linker
% cytotoxicity; 0.01 pM switch; FITC-E2 CAR-T; NALM6 cells [7]: 0% | % cytotoxicity; 0.1 pM switch; FITC-E2 CAR-T; NALM6 cells [7]: 3.85% | % cytotoxicity; 1 pM switch; FITC-E2 CAR-T; NALM6 cells [7]: 17.8% | % cytotoxicity; 10 pM switch; FITC-E2 CAR-T; NALM6 cells [7]: 56.7% | % cytotoxicity; 100 pM switch; FITC-E2 CAR-T; NALM6 cells [7]: 78.1% | % cytotoxicity; 1000 pM switch; FITC-E2 CAR-T; NALM6 cells [7]: 74.5% | Cytotoxicity EC50; FITC-E2 CAR-T; NALM6 cells [8]: 3.53 pM

B2: anti-CD19 Fab-FITC switch HS74X (pAzF at serine 74 of the heavy chain) (Fab, V domains shown)
VH: B1 VH with S74X
VL: B1 VL with X68G
modifications: pAzF at HC S74, clicked to cyclooctyne-FITC linker
% cytotoxicity; 0.01 pM switch; FITC-E2 CAR-T; NALM6 cells [7]: 0% | % cytotoxicity; 0.1 pM switch; FITC-E2 CAR-T; NALM6 cells [7]: 21.4% | % cytotoxicity; 1 pM switch; FITC-E2 CAR-T; NALM6 cells [7]: 47.6% | Cytotoxicity EC50; FITC-E2 CAR-T; NALM6 cells [8]: 0.97 pM
